Results taken from US20080045580A1, “Novel Isoxazole Compounds Having Ppar Agonist Activity” (DR REDDY'S LABORATORIES LIMITED, priority 2004, published 2008).

Assays:
human PPARδ = target: T1, human PPARδ (Homo sapiens, UniProt Q03181); experiment: in vitro PPARδ transactivation (GAL4-LBD luciferase reporter in HEK-293 cells); format: cell-based
T1 construct: expressed in transfected cells; host or cells: HEK-293
T1 sequence (Q03181 211-439 limits assumed): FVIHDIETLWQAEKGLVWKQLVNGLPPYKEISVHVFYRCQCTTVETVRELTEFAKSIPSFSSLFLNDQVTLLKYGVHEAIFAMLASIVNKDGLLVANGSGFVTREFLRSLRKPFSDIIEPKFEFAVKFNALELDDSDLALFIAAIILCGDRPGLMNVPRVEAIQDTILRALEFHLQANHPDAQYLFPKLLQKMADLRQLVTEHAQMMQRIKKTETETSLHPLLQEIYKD
Source text: (§1) The following procedure was used for in vitro determination of PPARα, γ and δ transactivation.
(§2) The ligand binding domain of human PPARγ1, PPARα or PPARδ was fused to the C-terminal end of DNA binding domain of yeast transcription factor GAL4 in eukaryotic expression vector. Using SuperFect (Qiagen), HEK-293 cells were transfected with this plasmid and a reporter plasmid harboring the luciferase gene driven under the control of 5 tandem GLA4 response elements. In some experiments, pAdVantage vector (Promega) was used to enhance luciferase expression. Compounds were added approximately 48 hours after transfection at various concentrations and incubated overnight. The cells were lysed and the luciferase activity was measured using the LucLite kit in Top Count (Packard). Luciferase activity was expressed as fold activation relative to untreated cells in the same experiment.

human PPARα = target: T2, human PPARα (Homo sapiens, UniProt Q07869); experiment: in vitro PPARα transactivation (GAL4-LBD luciferase reporter in HEK-293 cells); format: cell-based
T2 construct: expressed in transfected cells; host or cells: HEK-293
T2 sequence (Q07869 239-466 limits assumed): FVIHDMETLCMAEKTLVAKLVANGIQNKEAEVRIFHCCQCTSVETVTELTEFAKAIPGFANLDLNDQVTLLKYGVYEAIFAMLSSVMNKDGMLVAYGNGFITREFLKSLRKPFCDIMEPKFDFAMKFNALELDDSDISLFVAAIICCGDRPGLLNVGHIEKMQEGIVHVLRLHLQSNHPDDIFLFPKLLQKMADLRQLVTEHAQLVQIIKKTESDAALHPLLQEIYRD
Source text: Generally, suitable PPAR agonists are believed to be useful for attenuating and/or treatment of diabetic dyslipidemia, metabolic syndrome, diabetes, cardiovascular disease, and obesity. The following procedure was used for in vitro determination of PPARα, γ and δ transactivation.
as §2

Male Swiss albino mice = experiment: plasma triglyceride lowering in Swiss albino mice; format: in vivo; conditions: plasma triglycerides
Method: Male Swiss albino mice (SAM) were obtained from National Institute Nutrition (NIN, Hyderabad, India) and housed in Dr. Reddy's Laboratories Ltd (DRL) animal house. All these animals were maintained under 12 hour light and dark cycle at 25±1° C. Animals were given standard laboratory chow (NIN, Hyderabad, India) and water, ad libitum. Mice of 20-25 grams body weight range were used. See Olivier, et al., Atherosclerosis, 1988, 70:107-114, incorporated herein by reference in its entirety. The test compounds were administered orally to mice at the doses shown in the following in table for 6 days. […] After centrifugation, plasma was separated for plasma triglyceride and total cholesterol measurement. See Wieland, Methods of Enzymatic Analysis, Bergermeyer, ed., 1963, 211-214; Trinder, Ann. Clin. Biochenz., 1969, 6:24-27, incorporated herein by reference in their entireties. Measurement of cholesterol and plasma triglyceride was done using a […] autoanalyser (Merck). The percent reductions in plasma triglycerides (TG)/total cholesterol were calculated according to the following formula: [formula] OC=Zero day control group value OT=Zero day treated group value TC=Test day control group value TT=Test day treated group value.

human PPARγ1 = target: T3, human PPARγ1 (Homo sapiens, UniProt P37231); experiment: in vitro PPARγ transactivation (GAL4-LBD luciferase reporter in HEK-293 cells); format: cell-based
T3 construct: expressed in transfected cells; host or cells: HEK-293
T3 sequence (P37231 238-503 limits assumed): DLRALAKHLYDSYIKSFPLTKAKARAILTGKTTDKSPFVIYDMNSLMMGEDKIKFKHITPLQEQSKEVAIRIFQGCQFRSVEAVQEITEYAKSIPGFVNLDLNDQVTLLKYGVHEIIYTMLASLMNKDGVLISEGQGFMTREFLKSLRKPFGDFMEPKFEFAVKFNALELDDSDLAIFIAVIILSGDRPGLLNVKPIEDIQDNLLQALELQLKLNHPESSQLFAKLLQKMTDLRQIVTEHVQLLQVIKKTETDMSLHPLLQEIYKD
Source text: as §1, §2

[1] = tested on: hypercholesterolemic Male Sprague Dawley rats; experiment: lipid lowering in hypercholesterolemic Sprague Dawley rats; format: in vivo; conditions: hypercholesterolemic SD rats, 3 mg/kg orally for 3 days; for % Reduction TG: plasma triglycerides; for % Reduction TC: total cholesterol; for % Reduction LDL: LDL cholesterol calculated from TC, HDL, TG; for HDL % increase: values represent % increase
Method: Male Sprague Dawley rats (NIN stock) were bred in DRL animal house. Animals were maintained under 12 hour light and dark cycle at 25±1° C. Rats of 180-200 gram body weight range were used for the experiment. Animals were made hypercholesterolemic by feeding 2% cholesterol and 1% sodium cholate mixed with standard laboratory chow (NIN) for 6 days. Throughout the experimental period the animals were maintained on the same diet. Control rats were treated with vehicle alone (0.25% CMC; 10 ml/kg). Blood samples were collected in fed state 1 hour after drug administration on 0 and 3 days of treatment from the retro-orbital sinus through heparinized capillary tubes containing EDTA. After centrifugation, plasma sample was separated for total cholesterol, HDL and plasma triglyceride measurement. Measurement of total cholesterol, HDL and plasma triglyceride was done using a Vitalab Selectra autoanalyser (Merck). HDL was measured using a commercial kit. LDL and VLDL cholesterol were calculated from the data obtained for total cholesterol, HDL and plasma triglyceride.
The percent reductions in plasma triglycerides (TG)/total cholesterol (TC) were calculated as described in Example 55. The levels of LDL and VLDL cholesterol were calculated according to the following formulas: LDL cholesterol in mg/dl=[Total cholesterol−HDL cholesterol−Triglyceride/5] VLDL cholesterol in mg/dl=[Total cholesterol−HDL cholesterol−LDL cholesterol]

CCC(C)(Oc1ccc(OCc2cc(-c3ccc(OS(C)(=O)=O)cc3)no2)cc1)C(=O)O (centres unmarked) [Example 5]
PPARδ luciferase fold activation relative to untreated cells (human PPARδ; 1 μM): 9.0
PPARδ luciferase fold activation relative to untreated cells (human PPARδ; 10 μM): 10
PPARδ luciferase fold activation relative to untreated cells (human PPARδ; 50 μM): 33
PPARα luciferase fold activation relative to untreated cells (human PPARα; 1 μM): 1.7
PPARα luciferase fold activation relative to untreated cells (human PPARα; 10 μM): 3.8
PPARα luciferase fold activation relative to untreated cells (human PPARα; 50 μM): 6.0
% reduction in TG (Male Swiss albino mice; 3 mg/kg orally for 6 days): 75%
PPARγ luciferase fold activation relative to untreated cells (human PPARγ1; 1 μM): 0.9
PPARγ luciferase fold activation relative to untreated cells (human PPARγ1; 10 μM): 1.2
PPARγ luciferase fold activation relative to untreated cells (human PPARγ1; 50 μM): 6.4

CCC(C)(Oc1ccc(OCCCc2cc(-c3ccccc3)no2)cc1)C(=O)O (centres unmarked) [Example 10]
PPARδ luciferase fold activation relative to untreated cells (human PPARδ; 1 μM): 7.5
PPARδ luciferase fold activation relative to untreated cells (human PPARδ; 10 μM): 23
PPARδ luciferase fold activation relative to untreated cells (human PPARδ; 50 μM): 47
PPARα luciferase fold activation relative to untreated cells (human PPARα; 1 μM): 4.0
PPARα luciferase fold activation relative to untreated cells (human PPARα; 10 μM): 5.7
PPARα luciferase fold activation relative to untreated cells (human PPARα; 50 μM): 5.1
% reduction in TG (Male Swiss albino mice; 3 mg/kg orally for 6 days): 75%
PPARγ luciferase fold activation relative to untreated cells (human PPARγ1; 1 μM): 0.9
PPARγ luciferase fold activation relative to untreated cells (human PPARγ1; 10 μM): 3.5
PPARγ luciferase fold activation relative to untreated cells (human PPARγ1; 50 μM): 9.5
melting point: 115 to 117 °C

CCC(C)(Oc1ccc(OCc2cc(-c3ccc(C(F)(F)F)cc3)no2)cc1)C(=O)O (centres unmarked) [Example 11]
PPARα luciferase fold activation relative to untreated cells (human PPARα; 1 μM): 4.1
PPARα luciferase fold activation relative to untreated cells (human PPARα; 10 μM): 4.0
PPARα luciferase fold activation relative to untreated cells (human PPARα; 50 μM): 4.0
% Reduction TG [1]: 55%
% Reduction TC [1]: 71%
% Reduction LDL [1]: 76%
HDL % increase [1]: 139%
% reduction in TG (Male Swiss albino mice; 3 mg/kg orally for 6 days): 65%
PPARγ luciferase fold activation relative to untreated cells (human PPARγ1; 1 μM): 2.4
PPARγ luciferase fold activation relative to untreated cells (human PPARγ1; 10 μM): 2.7
PPARγ luciferase fold activation relative to untreated cells (human PPARγ1; 50 μM): 3.6
melting point: 136 to 138 °C

O=C(O)C1(Cc2ccc(OCc3cc(-c4ccc(C(F)(F)F)cc4)no3)cc2)CCCO1 (centres unmarked) [Example 36]
PPARδ luciferase fold activation relative to untreated cells (human PPARδ; 1 μM): 0.9
PPARδ luciferase fold activation relative to untreated cells (human PPARδ; 10 μM): 26.4
PPARδ luciferase fold activation relative to untreated cells (human PPARδ; 50 μM): 23.2
PPARα luciferase fold activation relative to untreated cells (human PPARα; 1 μM): 4.1
PPARα luciferase fold activation relative to untreated cells (human PPARα; 10 μM): 4.9
PPARα luciferase fold activation relative to untreated cells (human PPARα; 50 μM): 5.4
% Reduction TG [1]: 63%
% Reduction TC [1]: 52%
% Reduction LDL [1]: 62%
HDL % increase [1]: 128%
% reduction in TG (Male Swiss albino mice; 1 mg/kg orally for 6 days): 26%
PPARγ luciferase fold activation relative to untreated cells (human PPARγ1; 1 μM): 4.3
PPARγ luciferase fold activation relative to untreated cells (human PPARγ1; 10 μM): 9.8
PPARγ luciferase fold activation relative to untreated cells (human PPARγ1; 50 μM): 13.5
